According to publication PMC8543028 (Infection and Drug Resistance, 2021):

Tested on: M. tuberculosis-209
Format: cell-based, Mycobacterium tuberculosis

Question: For `O=[N+]([O-])c1ccc(/C(O)=C/C(=S)S)cc1` [Compound 11e, (Z)-3-hydroxy-3-(4-nitrophenyl)-prop-2-enedithioic acid], which “MIC100 in Mtb-209” value is on record?
Answer: Its value is “active”.
